# In US11965204B2, “Detection of analytes by enzyme-mediated strand displacement reactions” (priority 2020, dated 2024):
# B1: MphR: aTF used to sense macrolides; SEQ ID NO: 22 (protein, listed as Escherichia coli)
# chain: MPRPKLKSDDEVLEAATVVLKRCGPIEFTLSGVAKEVGLSRAALIQRFTNRDTLLVRMMERGVEQVRHYLNAIPIGAGPQGLWEFLQVLVRSMNTRNDFSVNYLISWYELQVPELRTLAIQRNRAVVEGIRKRLPPGAPAAAELLLHSVIAGATMQWAVDPDGELADHVLAQIAAILCLMFPEHDDFQLLQAHA
# Key:
# [1] = system: MphR; test: MphR-based biosensor, derepression by ligand; type: biochemical, E. coli; conditions: fixed concentration of MphR; erythromycin 0 nM-2.5 uM; FIG. 10
# Text: (§1) Here we present two biosensors built with the described mechanism above. As shown in FIGS. 7A-7B, the aTF TetR (SEQ ID NO: 21) can be used to build a tetracycline biosensor using its corresponding operator sequence in the DNA template and partially in the IP (SEQ ID NO: 19). Increasing concentrations of TetR decrease the rate of the reaction as there is less DNA template accessible to HgaI. When the system is repressed by a given concentration of TetR, it can be derepressed by the ligand tetracycline. The rate of the reaction is proportional to the concentration of tetracycline within a certain concentration range (FIG. 8). Similarly, a circuit using the aTF MphR (SEQ ID NO: 22) with its corresponding operator sequence (SEQ ID NOs: 17 and 18) in the DNA template and partially in the IP (SEQ ID NO: 20) can be used to sense macrolides.
# (§2) HgaI/Toehold-Mediated Strand Displacement Reactions.
# [2] = system: DNA template (S) with MphR operator sequence; test: Titration of MphR in the HgaI/toehold-mediated strand displacement reaction; type: biochemical; conditions: absence of erythromycin; MphR 0 nM-3 uM; FIG. 9B
# Text: FIG. 9A illustrates the components of the biosensor, indicating the DNA template (S) and Invading Probe (IP) sequences and modifications.
# as §1, §2
Molecule,response of the MphR-repressed reaction to the ligand [1],effect of increasing aTF concentration on reaction rate [2]
CC[C@H]1OC(=O)[C@H](C)[C@@H](O[C@H]2C[C@@](C)(OC)[C@@H](O)[C@H](C)O2)[C@H](C)[C@@H](O[C@@H]2O[C@H](C)C[C@H](N(C)C)[C@H]2O)[C@](C)(O)C[C@@H](C)C(=O)[C@H](C)[C@@H](O)[C@]1(C)O [erythromycin],proportionally higher reaction rates,–
B1,–,decrease of the reaction rate
